According to patent US20090325208A1 (priority 2006, published 2009):

Assays:
purified 20S proteasome = purified 20S proteasome (Homo sapiens, UniProt P28074); conditions: read-out: IC50 against purified 20S proteasome; cited from earlier work
[1] = molecular target: T1, 3-hydroxy-3-methylglutaryl-CoA synthase (HMGS) (Homo sapiens, UniProt Q01581); conditions: cited from earlier work
T1 sequence (Q01581 1-520): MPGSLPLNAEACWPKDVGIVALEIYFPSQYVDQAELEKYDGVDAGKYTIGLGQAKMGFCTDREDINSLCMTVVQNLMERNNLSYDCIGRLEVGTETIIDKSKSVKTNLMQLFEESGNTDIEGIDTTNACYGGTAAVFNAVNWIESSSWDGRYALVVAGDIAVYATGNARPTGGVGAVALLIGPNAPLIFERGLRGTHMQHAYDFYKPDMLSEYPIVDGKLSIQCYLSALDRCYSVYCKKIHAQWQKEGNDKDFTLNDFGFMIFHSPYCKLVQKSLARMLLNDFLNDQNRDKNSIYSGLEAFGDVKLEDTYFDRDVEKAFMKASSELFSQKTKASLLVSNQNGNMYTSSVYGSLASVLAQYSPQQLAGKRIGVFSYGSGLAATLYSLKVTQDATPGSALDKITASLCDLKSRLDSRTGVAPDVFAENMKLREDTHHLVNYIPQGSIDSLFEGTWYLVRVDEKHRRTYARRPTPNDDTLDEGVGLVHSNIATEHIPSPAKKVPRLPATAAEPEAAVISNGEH

animal tumor models = conditions: cited from earlier work
[2] = system: colon, pancreatic, and lung cancers; conditions: cited from earlier work
[3] = system: S. tropica 20S proteasome; assay: 20S Proteasome Activity Assay (Chemicon), cleavage of LLVY-AMC; type: biochemical; conditions: preliminary experiments, FIG. 19
Text: (§1) Inhibition of the 20S proteasome will also be measured 20S for all new salinosporamides. The CHEMICON Proteasome Activity Assay Kit by Chemicon International provides a system that is designed to detect the chymotrypsin-like activity of the yeast 20S proteasome through the release of the fluorophore AMC (7-amino-4-methylcoumarin) from the specific substrate Suc-LLVY-AMC after cleavage. AMC can be detected using a fluorometer with a 380 nm excitation and a 460 nm emission filter. For inhibitor screening, the test sample is added to the assay plate and fluorescence read, looking for a reduction in proteasome activity.
(§2) The ubiquitin-proteasome pathway involves the 26S proteasome, which is formed by the barrel-shaped 20S proteasome (about 700 kDa) and two 19S (about 700 kDa) regulatory complexes on each end of the 20S proteasome. […] Cleavage of the free flourophore, 7-Amino-4-methylcoumarin (AMC) from LLVY can be detected and quantified using a 380/460 nm filter set in a flourmeter. […]
(§3) The present invention describes the biosynthesis of SalJ (FIG. 16). […] Yet, the assembled-recombinant 20S proteasome with the SalJ β-subunit (far right two bars) confers resistance to at least SalA as there was no substantial measurable difference in the level of fluorescence of the free AMC (FIG. 19) in the presence or absence of SalA. […]

yeast 20S proteasome = molecular target: T2, yeast 20S proteasome (Saccharomyces cerevisiae, UniProt P30656); assay: as above; type: biochemical; conditions: preliminary experiments, FIG. 19
T2 construct: minus the N-terminal propeptide that is cleaved off autocatalytically during assembly; purchased Chemicon International
Text: as §1, §2, §3

[4] = system: assembled 20S proteasome from recombinant subunits containing the SalJ β-subunit; assay: as above; type: biochemical, S. tropica; conditions: assembled recombinant 20S proteasome with SalJ β-subunit (Ala→Val at residue 49); FIG. 19
Text: as §1, §2, §3

[5] = system: multiple myeloma cells that have become refractory to bortezomib therapy; conditions: cited from earlier work

CC(C)[C@H](O)[C@@]12NC(=O)[C@H](C)[C@@H]1OC2=O [omuralide, clasto-lactacystin-β-lactone, reference compound]
IC50 (purified 20S proteasome): 49 nM

CC(=C\C(=O)O)/C=C(\C)C[C@H](C)CCCC[C@H]1OC(=O)[C@@H]1CO [F-244]
IC50 [1]: 35 nM

C[C@@]12OC(=O)[C@]1([C@@H](O)[C@@H]1C=CCCC1)NC(=O)[C@@H]2CCCl [salinosporamide A]
oral activity (animal tumor models): orally active
survival (animal tumor models): prolongs survival
tolerability (animal tumor models): well tolerated
efficacy in animal models [2]: efficacious
inhibition of 20S proteasome (fluorescence of free AMC) [3]: inhibited
inhibition of 20S proteasome (fluorescence of free AMC) (yeast 20S proteasome): inhibited
inhibition of 20S proteasome (fluorescence of free AMC) [4]: not inhibited
induction of apoptosis [5]: induces apoptosis
